Reference: patent publication US7109370B2, “Substituted phenylketoenols” (Bayer Aktiengesellschaft, priority 1997, dated 2006)

Tests used:
Format in all cases: in vivo
[1] = tested on: greenhouse red spider mite Tetranychus urticae; assay: Tetranychus test (OP-resistant/dip treatment); conditions: after 14 days, infested bean plants dipped
Protocol: Tetranychus Test (OP-Resistant/Dip Treatment)
(§1) To produce a suitable preparation of active compound, 1 part by weight of active compound is mixed with the stated amount of solvent and the stated amount of emulsifier, and the concentrate is diluted with water to the desired concentration.
Bean plants (Phaseolus vulgaris) which are heavily infested by all stages of the greenhouse red spider mite Tetranychus urticae are dipped into a preparation of active compound of the desired concentration.
After the desired period of time, the kill in % is determined. 100% means that all spider mites have been killed; 0% means that none of the spider mites have been killed.

[2] = tested on: green rice leaf hoppers (Nephotettix cincticeps); assay: Nephotettix test (dipped rice seedlings); conditions: active compound concentration 0.1%, after 6 days
Protocol: as §1
Rice seedlings (Oryzae sativa) are treated by being dipped into the preparation of active compound of the desired concentration and are populated with green rice leaf hoppers (Nephotettix cincticeps) while the seedlings are still moist.
After the desired period of time, the kill in % is determined. 100% means that all leaf hoppers have been killed; […] means that none of the leaf hoppers have been killed.

[3] = tested on: larvae of the mustard beetle (Phaedon cochleariae); assay: Phaedon larvae test (dipped cabbage leaves); conditions: active compound concentration 0.1%, after 7 days
Protocol: Phaedon Larvae Test [table] To produce a suitable preparation of active compound, 1 part by weight of active compound is mixed with the stated amount of solvent and the stated amount of emulsifier, and the concentrate is diluted with water to the desired concentration. Cabbage leaves (Brassica oleracea) are treated by being dipped into the preparation of active compound of the desired concentration and are populated with larvae of the mustard beetle (Phaedon cochleariae) while the leaves are still moist.

[4] = tested on: peach aphids (Myzus persicae); assay: Myzus test (dipped cabbage leaves); conditions: active compound concentration 0.1%; after 6 days; infested cabbage leaves dipped
Protocol: as §1
Cabbage leaves (Brassica oleracea) which are heavily infested by peach aphids (Myzus persicae) are treated by being dipped into the preparation of active compound of the desired concentration.
After the desired period of time, the kill in % is determined. 100% means that all aphids have been killed; 0% means that none of the aphids have been killed.

[5] = tested on: Myzus persicae; assay: Critical concentration test/root-systemic action, Myzus persicae; conditions: 20 ppm active compound in soil; peppers; populated after 7 days, evaluated after a further 6 days
Protocol: Critical Concentration Test/Root-systemic Action
as §1
(§2) The preparation of active compound is intimately mixed with soil. The concentration of the active compound in the preparation is of practically no importance here, only the amount by weight of active compound per unit volume of soil, which is given in ppm (=mg/l), being decisive. The treated soil is transferred into pots and these are planted with peppers at the cotyledon stage. The active compound can in this way be taken up from the soil by the roots of the plants and be transported into the leaves.
(§3) After a further 6 days, evaluation is carried out by counting or estimating the dead animals. The root-systemic action of the active compound is deduced from the mortality figures. It is 100% if all the test animals have been killed and 0% if just as many test insects are still alive as in the case of the untreated control.

[6] = tested on: caterpillars of the owlet moth (Spodoptera frugiperda); assay: Spodoptera frugiperda test (dipped cabbage leaves); conditions: active compound concentration 0.1%, after 7 days
Protocol: Spodoptera frugiperda Test
as §1
Cabbage leaves (Brassica oleracea) are treated by being dipped into the preparation of active compound of the desired concentration and are populated with caterpillars of the owlet moth (Spodoptera frugiperda) while the leaves are still moist.
After the desired period of time, the kill in % is determined. 100% means that all caterpillars have been killed; 0% means that none of the caterpillars have been killed.

[7] = tested on: Aphis fabae; assay: Critical concentration test/root-systemic action, Aphis fabae; conditions: soil, read-out: root-systemic effect (mortality)
Protocol: Critical Concentration Test/Root-Systemic Action
as §1
as §2, with “pregerminated broad beans.” for “peppers at the cotyledon stage.”
as §3

[8] = active compound concentration 0.1%
[9] = active compound concentration 0.02%

Cc1ccc(C2=C(O)C3(CCOC(C)C3)NC2=O)c(C)c1 (single isomer, unassigned) [I-a-4]
effect (kill in %) [1, 8]: 100%

Cc1ccc(C2=C(O)C3(CCOC(C)C3)NC2=O)c(Cl)c1 (single isomer, unassigned) [I-a-7]
kill in % [2]: 100%
effect (kill in %) [1, 8]: 100%
kill in % [3]: 100%

Cc1cc(Cl)cc(Cl)c1C1=C(O)C2(CCOC(C)C2)NC1=O (single isomer, unassigned) [I-a-8]
kill in % [3]: 100%

Cc1cc(Cl)c(C2=C(O)C3(CCOC(C)C3)NC2=O)c(Cl)c1 (single isomer, unassigned) [I-a-9]
kill in % [4]: 100%
effect (kill in %) [1, 8]: 100%

Cc1cc(C)c(C2=C(O)C3(CCOC(C)C3)NC2=O)c(C)c1C (single isomer, unassigned) [I-a-10]
kill in % [4]: 100%

Cc1cc(C#N)cc(C)c1C1=C(O)C2(CCOC(C)C2)NC1=O (single isomer, unassigned) [I-a-12]
kill in % [4]: 100%

CC1CC2(CCO1)NC(=O)C(c1ccc(Br)cc1Cl)=C2O (single isomer, unassigned) [I-a-15]
kill in % [4]: 100%

Cc1cc(Cl)cc(C)c1C1=C(O)C2(CCOC(C)C2)NC1=O (single isomer, unassigned) [I-a-16]
root-systemic effect (mortality) [5]: 100%
kill in % [4]: 100%

Cc1cc(Br)cc(C)c1C1=C(O)C2(CCOC(C)C2)NC1=O (single isomer, unassigned) [I-a-18]
kill in % [4]: 100%

Cc1cc(Cl)cc(Br)c1C1=C(O)C2(CCOC(C)C2)NC1=O (single isomer, unassigned) [I-a-19]
kill in % [4]: 100%

Cc1ccc(C)c(C2=C(O)C3(CCOC(C)C3)NC2=O)c1 (single isomer, unassigned) [I-a-20]
kill in % [6]: 100%
kill in % [4]: 100%

CCc1cc(Br)c(C2=C(O)C3(CCOC(C)C3)NC2=O)c(Br)c1 (single isomer, unassigned) [I-a-21]
kill in % [4]: 100%

CCc1ccc(C2=C(O)C3(CCOC(C)C3)NC2=O)c(Cl)c1 (single isomer, unassigned) [I-a-22]
kill in % [2]: 100%

CC(=O)OC1=C(c2c(C)cc(C)cc2C)C(=O)NC12CCOC(C)C2 (single isomer, unassigned) [I-b-2]
kill in % [2]: 100%
effect (kill in %) [1, 8]: 100%

Cc1cc(C)c(C2=C(OC(=O)C(C)C)C3(CCOC(C)C3)NC2=O)c(C)c1 (single isomer, unassigned) [I-b-3]
effect (kill in %) [1, 8]: 100%

Cc1ccc(C2=C(OC(=O)C(C)C)C3(CCOC(C)C3)NC2=O)c(C)c1 (single isomer, unassigned) [I-b-4]
kill in % [2]: 100%
effect (kill in %) [1, 8]: 100%
kill in % [3]: 100%

CC(=O)OC1=C(c2c(C)cc(C)cc2C)C(=O)NC12CCOC(C)C2 (single isomer, unassigned) [I-b-5]
kill in % [2]: 100%

CC(=O)OC1=C(c2ccc(C)cc2C)C(=O)NC12CCOC(C)C2 (single isomer, unassigned) [I-b-6]
kill in % [2]: 100%

Cc1ccc(C2=C(OC(=O)C(C)C)C3(CCOC(C)C3)NC2=O)c(C)c1 (single isomer, unassigned) [I-b-7]
kill in % [2]: 100%
effect (kill in %) [1, 8]: 100%

Cc1ccc(C2=C(OC(=O)C(C)C)C3(CCOC(C)C3)NC2=O)c(Cl)c1 (single isomer, unassigned) [I-b-8]
kill in % [2]: 100%
effect (kill in %) [1, 8]: 100%
kill in % [3]: 100%

Cc1cc(C)c(C2=C(OC(=O)C(C)C)C3(CCOC(C)C3)NC2=O)c(C)c1C (single isomer, unassigned) [I-b-11]
kill in % [2]: 100%

CC1CC2(CCO1)NC(=O)C(c1ccc(Br)cc1Cl)=C2OC(=O)C(C)C (single isomer, unassigned) [I-b-15]
effect (kill in %) [1, 9]: 100%

CC1CC2(CCO1)NC(=O)C(c1ccc(Br)cc1Cl)=C2OC(=O)CC(C)(C)C (single isomer, unassigned) [I-b-16]
effect (kill in %) [1, 9]: 100%

Cc1cc(Cl)ccc1C1=C(OC(=O)C(C)C)C2(CCOC(C)C2)NC1=O (single isomer, unassigned) [I-b-17]
kill in % [2]: 100%
kill in % [4]: 100%
effect (kill in %) [1, 9]: 100%

CCc1ccc(C2=C(OC(=O)C(C)C)C3(CCOC(C)C3)NC2=O)c(Cl)c1 (single isomer, unassigned) [I-b-22]
kill in % [2]: 100%
effect (kill in %) [1, 9]: 100%
kill in % [3]: 100%

CCc1ccc(C2=C(OC(=O)c3cccs3)C3(CCOC(C)C3)NC2=O)c(Cl)c1 (single isomer, unassigned) [I-b-23]
kill in % [2]: 100%
kill in % [3]: 100%

Cc1cc(C)c(C2=C(O)C3(CCOC(C)C3)NC2=O)c(C)c1 (centres unmarked) [I-a-1]
mortality at 20 ppm [7]: 100%

Cc1cc(C)c(C2=C(OC(=O)C(C)C)C3(CCOC(C)C3)NC2=O)c(C)c1 (centres unmarked) [I-b-1]
mortality at 20 ppm [7]: 100%
kill in % [2]: 100%

Cc1cc(Cl)cc(C)c1C1=C(OC(=O)C(C)C)C2(CCOC(C)C2)NC1=O (centres unmarked) [I-b-25]
root-systemic effect (mortality) [5]: 100%

CCOC(=O)OC1=C(c2c(C)cc(C)cc2C)C(=O)NC12CCOC(C)C2 (centres unmarked) [I-c-1]
mortality at 20 ppm [7]: 100%
kill in % [2]: 100%
effect (kill in %) [1, 8]: 100%

CCOC(=O)OC1=C(c2ccc(C)cc2C)C(=O)NC12CCOC(C)C2 (centres unmarked) [I-c-3]
kill in % [6]: 100%
kill in % [2]: 100%
effect (kill in %) [1, 8]: 100%
kill in % [3]: 100%

CCOC(=O)OC1=C(c2ccc(C)cc2C)C(=O)NC12CCOC(C)C2 (centres unmarked) [I-c-4]
kill in % [2]: 100%
effect (kill in %) [1, 8]: 100%

CCOC(=O)OC1=C(c2c(C)cc(C)c(C)c2C)C(=O)NC12CCOC(C)C2 (centres unmarked) [I-c-5]
kill in % [2]: 100%

CCOC(=O)OC1=C(c2cc(C)c(C)cc2C)C(=O)NC12CCOC(C)C2 (centres unmarked) [I-c-7]
kill in % [2]: 100%

CCOC(=O)OC1=C(c2ccc(Br)cc2Cl)C(=O)NC12CCOC(C)C2 (centres unmarked) [I-c-8]
kill in % [4]: 100%

CCOC(=O)OC1=C(c2c(C)cc(Br)cc2C)C(=O)NC12CCOC(C)C2 (centres unmarked) [I-c-11]
kill in % [2]: 100%
kill in % [4]: 100%

CCOC(=O)OC1=C(c2ccc(Cl)cc2Cl)C(=O)NC12CCOC(C)C2 (centres unmarked) [I-c-12]
kill in % [4]: 100%

CCOC(=O)OC1=C(c2ccc(CC)cc2Cl)C(=O)NC12CCOC(C)C2 (centres unmarked) [I-c-13]
kill in % [6]: 100%
effect (kill in %) [1, 9]: 100%
kill in % [3]: 100%

CCOC(=O)OC1=C(c2cc(C)ccc2C)C(=O)NC12CCOC(C)C2 (centres unmarked) [I-c-15]
kill in % [6]: 100%
